Literature values, collected in US8399018B2, “Controlled release ion channel modulator compositions and methods for the treatment of otic disorders” (priority 2008, dated 2013).

Key:
V2-R = conditions: infusion into the scala tympani
guinea pigs = conditions: chronic administration
tinnitus = conditions: administered by IV

Cc1ccccc1C(=O)Nc1ccc(C(=O)N2CCCC(N(C)C)c3ccccc32)cc1 (stereo not drawn) [OPC-31260]
reduction of Meniere's disease symptoms (V2-R): marked reduction

NC(=O)CC[C@@H]1NC(=O)[C@H](Cc2ccccc2)NC(=O)[C@H](Cc2ccc(O)cc2)NC(=O)[C@@H](N)CSSC[C@@H](C(=O)N2CCC[C@H]2C(=O)N[C@@H](CCCN=C(N)N)C(=O)NCC(N)=O)NC(=O)[C@H](CC(N)=O)NC1=O [VP, vasopressin]
induction of endolymphatic hydrops (guinea pigs): induces endolymphatic hydrops

CCN(CC)CC(=O)Nc1c(C)cccc1C [Lidocaine]
sufferers in whom noise associated with tinnitus is reduced or eliminated (tinnitus): 60-80%
